Assays:
[1] = system: Homo sapiens; assay: Toxicity in human patient infected with Trypanosoma cruzi assessed as occurrence of Aphthous stomatitis at 5 mg/kg/day for 60 days; type: organism-based; conditions: in vivo, 1440 h
[2] = system: Homo sapiens; assay: Toxicity in human patient infected with Trypanosoma cruzi assessed as occurrence of Vomiting at 5 mg/kg/day for 60 days; type: organism-based; conditions: in vivo, 1440 h
[3] = system: Homo sapiens; assay: Toxicity in human patient infected with Trypanosoma cruzi assessed as occurrence of Weakness at 5 mg/kg/day for 60 days; type: organism-based; conditions: in vivo, 1440 h
[4] = system: Homo sapiens; assay: Toxicity in human patient infected with Trypanosoma cruzi assessed as occurrence of Arthromyalgia at 5 mg/kg/day for 60 days; type: organism-based; conditions: in vivo, 1440 h
[5] = system: Homo sapiens; assay: Toxicity in human patient infected with Trypanosoma cruzi assessed as occurrence of Hearing impairment at 5 mg/kg/day for 60 days; type: organism-based; conditions: in vivo, 1440 h
[6] = species on record: Homo sapiens; assay: Toxicity in human patient infected with Trypanosoma cruzi assessed as occurrence of agranulocytosis after 2nd week of treatment; type: organism-based; conditions: in vivo
[7] = species on record: Homo sapiens; assay: Toxicity in human patient infected with Trypanosoma cruzi assessed as occurrence of thrombopenic purpura after 2nd week of treatment; type: organism-based; conditions: in vivo
[8] = system: Homo sapiens; assay: Toxicity in human patient infected with Trypanosoma cruzi assessed as occurrence of Dyshidrosis at 5 mg/kg/day for 60 days; type: organism-based; conditions: in vivo, 1440 h
[9] = system: Homo sapiens; assay: Toxicity in human patient infected with Trypanosoma cruzi assessed as occurrence of Epigastralgia at 5 mg/kg/day for 60 days; type: organism-based; conditions: in vivo, 1440 h
[10] = species on record: Homo sapiens; assay: Toxicity in human patient infected with Trypanosoma cruzi assessed as occurrence of arthralgias; type: organism-based; conditions: in vivo
[11] = system: Homo sapiens; assay: Toxicity in human patient infected with Trypanosoma cruzi assessed as occurrence of Itching at 5 mg/kg/day for 60 days; type: organism-based; conditions: in vivo, 1440 h
[12] = species on record: Homo sapiens; assay: Toxicity in human patient infected with Trypanosoma cruzi assessed as occurrence of hypersensitivity on day 7 to 10; type: organism-based; conditions: in vivo
[13] = system: Homo sapiens; assay: Toxicity in human patient infected with Trypanosoma cruzi assessed as occurrence of Erythema nodosum at 5 mg/kg/day for 60 days; type: organism-based; conditions: in vivo, 1440 h
[14] = system: Homo sapiens; assay: Toxicity in human patient infected with Trypanosoma cruzi assessed as occurrence of Dermatological disorder at 5 mg/kg/day for 60 days; type: organism-based; conditions: in vivo, 1440 h
[15] = system: Homo sapiens; assay: Toxicity in human patient infected with Trypanosoma cruzi assessed as occurrence of Hyperpigmentation at 5 mg/kg/day for 60 days; type: organism-based; conditions: in vivo, 1440 h
[16] = species on record: Homo sapiens; assay: Toxicity in human patient infected with Trypanosoma cruzi assessed as occurrence of polyneuritis on 4th week of treatment; type: organism-based; conditions: in vivo
[17] = system: Homo sapiens; assay: Toxicity in human patient infected with Trypanosoma cruzi assessed as occurrence of Headache at 5 mg/kg/day for 60 days; type: organism-based; conditions: in vivo, 1440 h
[18] = system: Homo sapiens; assay: Toxicity in human patient infected with Trypanosoma cruzi assessed as occurrence of Dysphagia at 5 mg/kg/day for 60 days; type: organism-based; conditions: in vivo, 1440 h
[19] = system: Homo sapiens; assay: Toxicity in human patient infected with Trypanosoma cruzi assessed as occurrence of Palmar-plantar rash at 5 mg/kg/day for 60 days; type: organism-based; conditions: in vivo, 1440 h
[20] = system: Homo sapiens; assay: Toxicity in human patient infected with Trypanosoma cruzi assessed as occurrence of Edema at 5 mg/kg/day for 60 days; type: organism-based; conditions: in vivo, 1440 h
[21] = system: Homo sapiens; assay: Toxicity in human patient infected with Trypanosoma cruzi assessed as occurrence of Fever at 5 mg/kg/day for 60 days; type: organism-based; conditions: in vivo, 1440 h
[22] = species on record: Homo sapiens; assay: Toxicity in human patient infected with Trypanosoma cruzi assessed as occurrence of paresthesias on 4th week of treatment; type: organism-based; conditions: in vivo
[23] = system: Homo sapiens; assay: Toxicity in human patient infected with Trypanosoma cruzi assessed as occurrence of Arthritis at 5 mg/kg/day for 60 days; type: organism-based; conditions: in vivo, 1440 h
[24] = system: Homo sapiens; assay: Toxicity in human patient infected with Trypanosoma cruzi assessed as occurrence of Mucositis at 5 mg/kg/day for 60 days; type: organism-based; conditions: in vivo, 1440 h
[25] = system: Homo sapiens; assay: Toxicity in human patient infected with Trypanosoma cruzi assessed as occurrence of Heartburn at 5 mg/kg/day for 60 days; type: organism-based; conditions: in vivo, 1440 h
[26] = species on record: Homo sapiens; assay: Toxicity in human patient infected with Trypanosoma cruzi assessed as occurrence of dermatitis with cutaneous eruptions on day 7 to 10; type: organism-based; conditions: in vivo
[27] = system: Homo sapiens; assay: Toxicity in human patient infected with Trypanosoma cruzi assessed as occurrence of Diarrhea at 5 mg/kg/day for 60 days; type: organism-based; conditions: in vivo, 1440 h
[28] = system: Homo sapiens; assay: Toxicity in human patient infected with Trypanosoma cruzi assessed as occurrence of Nausea at 5 mg/kg/day for 60 days; type: organism-based; conditions: in vivo, 1440 h
[29] = species on record: Homo sapiens; assay: Toxicity in human patient infected with Trypanosoma cruzi assessed as occurrence of polyneuropathy on 4th week of treatment; type: organism-based; conditions: in vivo
[30] = system: Homo sapiens; assay: Toxicity in human patient infected with Trypanosoma cruzi assessed as occurrence of Urticaria at 5 mg/kg/day for 60 days; type: organism-based; conditions: in vivo, 1440 h
[31] = system: Homo sapiens; assay: Toxicity in human patient infected with Trypanosoma cruzi assessed as occurrence of cardiac disorders at 5 mg/kg/day for 60 days; type: organism-based, Heart; conditions: in vivo, 1440 h
[32] = species on record: Homo sapiens; assay: Toxicity in human patient infected with Trypanosoma cruzi assessed as occurrence of myalgias; type: organism-based; conditions: in vivo
[33] = system: Homo sapiens; assay: Toxicity in human patient infected with Trypanosoma cruzi assessed as occurrence of Paresthesia at 5 mg/kg/day for 60 days; type: organism-based; conditions: in vivo, 1440 h
[34] = system: Homo sapiens; assay: Toxicity in human patient infected with Trypanosoma cruzi assessed as occurrence of dolichocolon at 5 mg/kg/day for 60 days; type: organism-based, Colon; conditions: in vivo, 1440 h
[35] = system: Homo sapiens; assay: Toxicity in human patient infected with Trypanosoma cruzi assessed as occurrence of Articular involvement at 5 mg/kg/day for 60 days; type: organism-based; conditions: in vivo, 1440 h
[36] = species on record: Homo sapiens; assay: Toxicity in human patient infected with Trypanosoma cruzi assessed as occurrence of lymphadenopathy; type: organism-based; conditions: in vivo
[37] = system: Homo sapiens; assay: Toxicity in human patient infected with Trypanosoma cruzi assessed as occurrence of Anorexia at 5 mg/kg/day for 60 days; type: organism-based; conditions: in vivo, 1440 h
[38] = system: Homo sapiens; assay: Toxicity in human patient infected with Trypanosoma cruzi assessed as occurrence of Petechial rash at 5 mg/kg/day for 60 days; type: organism-based; conditions: in vivo, 1440 h
[39] = system: Homo sapiens; assay: Toxicity in human patient infected with Trypanosoma cruzi assessed as occurrence of Gastrointestinal disorders at 5 mg/kg/day for 60 days; type: organism-based; conditions: in vivo, 1440 h
[40] = system: Homo sapiens; assay: Toxicity in human patient infected with Trypanosoma cruzi assessed as occurrence of Abdominal bloating at 5 mg/kg/day for 60 days; type: organism-based, Abdomen; conditions: in vivo, 1440 h

In the case of O=C(Cn1ccnc1[N+](=O)[O-])NCc1ccccc1 [BENZNIDAZOLE], the Activity [1] is reported as 1%, the Activity [2] is reported as “Toxic” and the Activity [3] is reported as 30%. The Activity [4] was “Toxic”, the Activity [5] was 1% and the Activity [6] was “Toxic”. For the same molecule, the Activity [7] was “Toxic”, the Activity [8] was “Toxic” and the Activity [9] was “Toxic”. For the same molecule, the Activity [10] was “Toxic”, the Activity [11] was 13.2% and the Activity [12] was “Toxic”. For the same molecule, the Activity [13] was “Toxic”, the Activity [14] was 50.5% and the Activity [15] was “Toxic”. For the same molecule, the Activity [16] was “Toxic”, the Activity [17] was 56.2% and the Activity [18] was “Toxic”. The Activity [19] was “Toxic”, the Activity [20] was “Toxic” and the Activity [21] was 11%. For the same molecule, the Activity [22] was “Toxic”, the Activity [23] was “Toxic” and the Activity [24] was “Toxic”. The Activity [25] was “Toxic”, the Activity [26] was “Toxic” and the Activity [27] was “Toxic”. The Activity [28] was “Toxic”, the Activity [29] was “Toxic” and the Activity [30] was 43.4%. The Activity [31] was 12.4%, the Activity [32] was “Toxic” and the Activity [33] was 27.6%. For the same molecule, the Activity [34] was 1.9%, the Activity [35] was 36.2% and the Activity [36] was “Toxic”. It also gave an Activity [37] of 40%, an Activity [38] of 35.8% and an Activity [39] of 15%. For the same molecule, the Activity [40] was “Toxic”.

— ChEMBL document CHEMBL1671762, “Tolerance of benznidazole in treatment of Chagas' disease in adults” (Antimicrob Agents Chemother, 2010)
